# Source: ChEMBL document CHEMBL1125116 (J Med Chem, 1990)
# Molecular target: D(2) dopamine receptor (Rattus norvegicus, UniProt P61169)
# Assay: Evaluated in vitro for the affinity towards Dopamine receptor D2 of rat striatal tissue
# Chain of D(2) dopamine receptor (P61169 whole entry): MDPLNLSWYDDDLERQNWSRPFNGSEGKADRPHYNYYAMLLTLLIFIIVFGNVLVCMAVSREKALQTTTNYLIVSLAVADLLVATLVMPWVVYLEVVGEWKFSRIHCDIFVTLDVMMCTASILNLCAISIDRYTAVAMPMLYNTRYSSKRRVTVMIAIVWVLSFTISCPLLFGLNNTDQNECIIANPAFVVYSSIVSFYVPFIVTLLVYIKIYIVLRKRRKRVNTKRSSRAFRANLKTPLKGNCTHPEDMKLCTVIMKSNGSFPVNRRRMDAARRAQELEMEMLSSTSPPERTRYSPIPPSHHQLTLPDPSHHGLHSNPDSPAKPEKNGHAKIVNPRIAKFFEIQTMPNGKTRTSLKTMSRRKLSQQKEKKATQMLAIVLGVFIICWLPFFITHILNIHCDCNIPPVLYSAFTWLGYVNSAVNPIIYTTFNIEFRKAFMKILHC
compound,measurement,value
O=C(CCCN1CCC2(CC1)C(=O)NCN2c1ccccc1)c1ccc(F)cc1I,Kd,250 pM
